In US8940768B2, “Antifungal triazole derivatives” (Daewoong Pharmaceutical Co., Ltd., priority 2010, dated 2015):
Values after ≈ are worked out from the molar mass of the structure shown.

Legend:
Type in all cases: cell-based
Candida albicans = assay: in vitro antifungal activity (MIC80), Candida albicans; settings: 80% growth inhibition vs negative control, RPMI 1640, read 24 hrs after application, Table 1, read-out: Antifungal Activity (MIC80) C. albicans
Description: (§1) The compounds of the present invention were evaluated for inhibitory activity against yeast molds including Candida albicans, Candida glabrata, Candida krusei, Candida tropicalis, Candida parapsilosis, and Cryptococcus neoformans, and filamentous fungi including Aspergillus fumigatus, Trichophyton mentagrophytes (obtained from KCTC (Korean Collection for Type Cultures), and Trichophyton rubrum (obtained from KCCM (Korean Culture Center of Microorganisms). All the strains, but Trichophyton mentagrophytes and Trichophyton rubrum, were purchased from the ATCC (American Type Culture Collection).
(§2) Of the strains used in this test, Candida albicans, Candida glabrata, Candida krusei, Candida tropicalis, Candida parapsilosis, Trichophyton mentagrophytes and Trichophyton rubrum were inoculated into sabouraud dextrose agars (Difco, BD-0109), Cryptococcus neoformans into a yeast mold agar (YM agar, Difco, 271210), and Aspergillus fumigatus into a malt extract agar (Difco, 211220), before incubation at 35° C. for two to ten days.
(§3) From the agars on which the yeast molds were grown, single colonies were picked up, and each was sufficiently suspended in 5 mL of already prepared, 0.85% sterile saline. After correction of the absorbance to 0.108 at 530 nm, each of the suspensions was diluted to a ratio of 1:50 in an RPMI (Roswell park memorial institute) 1640 medium and then to a ratio of 1:20 to prepare an inoculum having a cell density of from 1.0×10^3 to 5.0×10^3CFU/mL. The cell density was adjusted into […]˜5.0×10^4 CFU/mL for Aspergillus fumigates and 0.4×10^4˜5.0×10^4 CFU/mL for both Trichophyton mentagrophytes and Trichophyton rubrum.
(§4) The antifungal agent samples were prepared by diluting the active compounds in an RPMI 1640 medium to a serial density of from 0.0156 to 32 μg/mL. In this context, dimethylsulfoxide (DMSO) was used as an excipient at a final concentration of 1% (v/v). The serial dilutions were aliquoted at a volume of 0.1 mL and applied to 0.1 mL of the aliquots of each inoculum, followed by incubation.
(§5) With the naked eyes, an observation was made of all of the yeast molds, but Cryptococcus neoformans 24 hrs after the application, Cryptococcus neoformans and Aspergillus fumigatus 48 hrs after the application, and Trichophyton mentagrophytes and Trichophyton rubrum five days after the application to examine whether the fungi grew or not. In addition, Alamarblue™ as used to determine the concentrations of the compounds of the present invention at which the growth of the microorganisms was 80% inhibited compared to that of the negative control. All experiments were performed in duplicate for each of the test concentration groups.

Candida glabrata = assay: in vitro antifungal activity (MIC80), Candida glabrata; settings: Nakaseomyces glabratus, 24 h, read-out: Antifungal Activity (MIC80) C. grabrata
Description: as §1, §2, §3, §4, §5

Candida krusei = assay: in vitro antifungal activity (MIC80), Candida krusei; settings: Pichia kudriavzevii; 80% growth inhibition vs negative control; RPMI 1640; read 24 hrs after application; read-out: Antifungal Activity (MIC80) C. krusei
Description: as §1, §2, §3, §4, §5

Candida tropicalis = assay: in vitro antifungal activity (MIC80), Candida tropicalis; settings: 80% growth inhibition vs negative control, RPMI 1640, read 24 hrs after application, read-out: Antifungal Activity (MIC80) C. tropicalis
Description: as §1, §2, §3, §4, §5

Candida parapsilosis = assay: in vitro antifungal activity (MIC80), Candida parapsilosis; settings: Lodderomyces parapsilosis; 80% growth inhibition vs negative control; RPMI 1640; read 24 hrs after application; read-out: Antifungal Activity (MIC80) C. parapsilosis
Description: as §1, §2, §3, §4, §5

Cryptococcus neoformans = assay: in vitro antifungal activity (MIC80), Cryptococcus neoformans; settings: 80% growth inhibition vs negative control, RPMI 1640, read 48 hrs after application
Description: as §1, §2, §3, §4, §5

Aspergillus fumigatus = assay: in vitro antifungal activity (MIC80), Aspergillus fumigatus; settings: 80% growth inhibition vs negative control, RPMI 1640, read 48 hrs after application
Description: as §1, §2, §3, §4, §5

[1] = system: Trichophyton mentagrophytes; assay: in vitro antifungal activity (MIC80), Trichophyton mentagrophytes; settings: 120 h, 80% growth inhibition vs negative control, RPMI 1640, read five days after application
Description: as §1, §2, §3, §4, §5

Trichophyton rubrum = assay: in vitro antifungal activity (MIC80), Trichophyton rubrum; settings: 120 h, 80% growth inhibition vs negative control, RPMI 1640, read five days after application
Description: as §1, §2, §3, §4, §5

SMILES | MIC80 (Candida albicans) [mg/L] | MIC80 (Candida glabrata) [mg/L] | MIC80 (Candida krusei) [mg/L] | MIC80 (Candida tropicalis) [mg/L] | MIC80 (Candida parapsilosis) [mg/L] | MIC80 (Cryptococcus neoformans) [mg/L] | MIC80 (Aspergillus fumigatus) [mg/L] | MIC80 [1] [mg/L] | MIC80 (Trichophyton rubrum) [mg/L]
C[C@@H](N1CCC(Oc2ncc(Br)cn2)CC1)[C@](O)(Cn1cncn1)c1ccc(F)cc1F [Example 32, (2R,3R)-3-(4-((5-bromopyrimidin-2-yl)oxy)piperidin-1-yl)-2-(2,4-difluorophenyl)-1-(1H-1,2,4-triazol-1-yl)butan-2-ol] | ≤ 0.015 | 0.125 (≈ 0.245 µM) | 0.125 (≈ 0.245 µM) | ≤ 0.015 | ≤ 0.015 | ≤ 0.015 | ≤ 0.125 | ≤ 0.125 | 0.031 (≈ 0.0609 µM)
C[C@@H](N1CCC(Nc2ccc(Cl)cc2)CC1)[C@](O)(Cn1cncn1)c1ccc(F)cc1F [Example 34, (2R,3R)-3-(4-((4-chlorophenyl)amino)piperidin-1-yl)-2-(2,4-difluorophenyl)-1-(1H-1,2,4-triazol-1-yl)butan-2-ol] | ≤ 0.015 | 0.125 (≈ 0.271 µM) | 0.031 (≈ 0.0671 µM) | ≤ 0.015 | ≤ 0.015 | ≤ 0.015 | ≤ 0.125 | ≤ 0.125 | ≤ 0.125
C[C@@H](N1CCC(Nc2ccc(Cl)cn2)CC1)[C@](O)(Cn1cncn1)c1ccc(F)cc1F [Example 59, (2R,3R)-3-(4-((5-chloropyridin-2-yl)-amino)piperidin-1-yl)-2-(2,4-difluorophenyl)-1-(1H-1,2,4-triazol-1-yl)butan-2-ol] | ≤ 0.015 | 0.25 (≈ 0.54 µM) | 0.062 (≈ 0.134 µM) | 0.125 (≈ 0.27 µM) | ≤ 0.015 | ≤ 0.015 | 0.25 (≈ 0.54 µM) | ≤ 0.125 | ≤ 0.125
C[C@@H](NC1CCN(c2ccc(F)cc2)CC1)[C@](O)(Cn1cncn1)c1ccc(F)cc1F [Example 125, (2R,3R)-2-(2,4-difluorophenyl)-3-((1-(4-fluorophenyl)piperidin-4-yl)amino)-1-(1H-1,2,4-triazol-1-yl)butan-2-ol] | ≤ 0.015 | 0.125 (≈ 0.281 µM) | 0.062 (≈ 0.139 µM) | 0.031 (≈ 0.0696 µM) | ≤ 0.015 | ≤ 0.015 | 0.25 (≈ 0.561 µM) | ≤ 0.125 | ≤ 0.125
C[C@@H](NC1CCN(c2ccc(Cl)cc2)CC1)[C@](O)(Cn1cncn1)c1ccc(F)cc1F [Example 128, (2R,3R)-3-((1-(4-chlorophenyl)piperidin-4-yl)amino)-2-(2,4-difluorophenyl)-1-(1H-1,2,4-triazol-1-yl)butan-2-ol] | ≤ 0.015 | 0.062 (≈ 0.134 µM) | ≤ 0.015 | 0.031 (≈ 0.0671 µM) | 0.031 (≈ 0.0671 µM) | ≤ 0.015 | 0.25 (≈ 0.541 µM) | 0.015 (≈ 0.0325 µM) | ≤ 0.125
C[C@@H](NC1CCN(c2ncc(Br)cn2)CC1)[C@](O)(Cn1cncn1)c1ccc(F)cc1F [Example 153, (2R,3R)-3-((1-(5-bromopyrimidin-2-yl)piperidin-4-yl)amino)-2-(2,4-difluorophenyl)-1-(1H-1,2,4-triazol-1-yl)butan-2-ol] | ≤ 0.015 | 0.125 (≈ 0.246 µM) | 0.125 (≈ 0.246 µM) | 0.25 (≈ 0.492 µM) | ≤ 0.015 | ≤ 0.015 | 1 (≈ 1.97 µM) | 0.5 (≈ 0.984 µM) | ≤ 0.125
OC(Cn1cncn1)(Cn1cncn1)c1ccc(F)cc1F [Fluconazole, reference compound] | 4 (≈ 13.1 µM) | > 32 | 4 (≈ 13.1 µM) | > 32 | > 32 | 0.5 (≈ 1.63 µM) | > 128 | 16 (≈ 52.2 µM) | 4 (≈ 13.1 µM)
C[C@@H](c1ncncc1F)[C@](O)(Cn1cncn1)c1ccc(F)cc1F [Voriconazole, reference compound] | 0.031 (≈ 0.0887 µM) | 2 (≈ 5.73 µM) | 0.5 (≈ 1.43 µM) | 0.25 (≈ 0.716 µM) | 0.5 (≈ 1.43 µM) | 0.25 (≈ 0.716 µM) | 0.25 (≈ 0.716 µM) | 0.125 (≈ 0.358 µM) | ≤ 0.125
